In ChEMBL document CHEMBL3045679, “Microwave-assisted synthesis and pharmacological studies of novel 5-deazaalloxazine derivatives” (2012):
Values after ≈ are worked out from the molar mass of the structure shown. Active and inactive are the calls of the source. The rule behind the calls is not given here.

Key:
[1] = system: Rhodotorula mucilaginosa; assay: Antifungal activity against Rhodotorula mucilaginosa NCIM 3174 at 500 ug/disk after 72 hr by disk diffusion method; type: functional; conditions: for zone of inhibition at 500 µg/disc: NCIM 3174, 72 h, read-out: DIZ
[2] = system: Rhodotorula mucilaginosa; assay: Antifungal activity against Rhodotorula mucilaginosa NCIM 3174 at 1000 ug/disk after 72 hr by disk diffusion method; type: functional; conditions: NCIM 3174, 72 h, read-out: DIZ
[3] = system: Aspergillus niger; assay: Antifungal activity against Aspergillus niger NCIM 1196 at 1000 ug/disk after 72 hr by disk diffusion method; type: functional; conditions: for zone of inhibition at 1000 µg/disc: NCIM 1196, 72 h, read-out: DIZ
[4] = system: Candida albicans; assay: Antifungal activity against Candida albicans NCIM 3471 at 1000 ug/disk after 72 hr by disk diffusion method; type: functional; conditions: NCIM 3471, 72 h, read-out: DIZ
[5] = system: Klebsiella aerogenes; assay: Antibacterial activity against Enterobacter aerogenes NCIM 2239 at 500 ug/disk after 24 hr by disk diffusion method; type: functional; conditions: for zone of inhibition at 500 µg/disc: NCIM 2239, 24 h, read-out: DIZ
[6] = system: Aspergillus flavus; assay: Antifungal activity against Aspergillus flavus NCIM 535 after 72 hr by broth dilution assay; type: functional; conditions: NCIM 535, 72 h
[7] = system: Candida albicans; assay: Antifungal activity against Candida albicans NCIM 3471 after 72 hr by broth dilution assay; type: functional; conditions: NCIM 3471, 72 h
[8] = system: Escherichia coli; assay: Antibacterial activity against Escherichia coli NCIM 2065 at 1000 ug/disk after 24 hr by disk diffusion method; type: functional; conditions: NCIM 2065, 24 h, read-out: DIZ
[9] = system: Bacillus cereus; assay: Antibacterial activity against Bacillus cereus NCIM 2155 after 24 hr by broth dilution assay; type: functional; conditions: NCIM 2155, 24 h
[10] = system: Streptomyces albus; assay: Antibacterial activity against Streptomyces albus NCIM 2178 after 24 hr by broth dilution assay; type: functional; conditions: NCIM 2178, 24 h
[11] = system: Penicillium chrysogenum; assay: Antifungal activity against Penicillium chrysogenum NCIM 707 at 1000 ug/disk after 72 hr by disk diffusion method; type: functional; conditions: NCIM 707, 72 h, read-out: DIZ
[12] = system: Bacillus subtilis; assay: Antibacterial activity against Bacillus subtilis NCIM 2063 at 1000 ug/disk after 24 hr by disk diffusion method; type: functional; conditions: NCIM 2063, 24 h, read-out: DIZ
[13] = system: Aspergillus niger; assay: Antifungal activity against Aspergillus niger NCIM 1196 after 72 hr by broth dilution assay; type: functional; conditions: NCIM 1196, 72 h
[14] = system: Penicillium chrysogenum; assay: Antifungal activity against Penicillium chrysogenum NCIM 707 at 500 ug/disk after 72 hr by disk diffusion method; type: functional; conditions: for zone of inhibition at 500 µg/disc: NCIM 707, 72 h, read-out: DIZ
[15] = system: Klebsiella aerogenes; assay: Antibacterial activity against Enterobacter aerogenes NCIM 2239 after 24 hr by broth dilution assay; type: functional; conditions: NCIM 2239, 24 h
[16] = system: Klebsiella aerogenes; assay: Antibacterial activity against Enterobacter aerogenes NCIM 2239 at 1000 ug/disk after 24 hr by disk diffusion method; type: functional; conditions: NCIM 2239, 24 h, read-out: DIZ
[17] = system: Escherichia coli; assay: Antibacterial activity against Escherichia coli NCIM 2065 at 500 ug/disk after 24 hr by disk diffusion method; type: functional; conditions: for zone of inhibition at 500 µg/disc: NCIM 2065, 24 h, read-out: DIZ
[18] = system: Bacillus subtilis; assay: Antibacterial activity against Bacillus subtilis NCIM 2063 at 500 ug/disk after 24 hr by disk diffusion method; type: functional; conditions: for zone of inhibition at 500 µg/disc: NCIM 2063, 24 h, read-out: DIZ
[19] = system: Escherichia coli; assay: Antibacterial activity against Escherichia coli NCIM 2065 after 24 hr by broth dilution assay; type: functional; conditions: NCIM 2065, 24 h
[20] = system: Rhodotorula mucilaginosa; assay: Antifungal activity against Rhodotorula mucilaginosa NCIM 3174 after 72 hr by broth dilution assay; type: functional; conditions: NCIM 3174, 72 h
[21] = system: Aspergillus niger; assay: Antifungal activity against Aspergillus niger NCIM 1196 at 500 ug/disk after 72 hr by disk diffusion method; type: functional
[22] = system: Lipomyces lipofer; assay: Antifungal activity against Lipomyces lipofer NCIM 3252 at 500 ug/disk after 72 hr by disk diffusion method; type: functional; conditions: for zone of inhibition at 500 µg/disc: NCIM 3252, 72 h, read-out: DIZ
[23] = system: Lipomyces lipofer; assay: Antifungal activity against Lipomyces lipofer NCIM 3252 at 1000 ug/disk after 72 hr by disk diffusion method; type: functional; conditions: NCIM 3252, 72 h, read-out: DIZ
[24] = system: Bacillus cereus; assay: Antibacterial activity against Bacillus cereus NCIM 2155 at 1000 ug/disk after 24 hr by disk diffusion method; type: functional; conditions: NCIM 2155, 24 h, read-out: DIZ
[25] = system: Pseudomonas aeruginosa; assay: Antibacterial activity against Pseudomonas aeruginosa NCIM 2200 after 24 hr by broth dilution assay; type: functional; conditions: NCIM 2200, 24 h
[26] = system: Streptomyces albus; assay: Antibacterial activity against Streptomyces albus NCIM 2178 at 1000 ug/disk after 24 hr by disk diffusion method; type: functional; conditions: NCIM 2178, 24 h, read-out: DIZ
[27] = system: Pseudomonas aeruginosa; assay: Antibacterial activity against Pseudomonas aeruginosa NCIM 2200 at 500 ug/disk after 24 hr by disk diffusion method; type: functional; conditions: for zone of inhibition at 500 µg/disc: NCIM 2200, 24 h, read-out: DIZ
[28] = system: Aspergillus flavus; assay: Antifungal activity against Aspergillus flavus NCIM 535 at 500 ug/disk after 72 hr by disk diffusion method; type: functional; conditions: NCIM 535, 72 h, read-out: DIZ
[29] = system: Bacillus subtilis; assay: Antibacterial activity against Bacillus subtilis NCIM 2063 after 24 hr by broth dilution assay; type: functional; conditions: NCIM 2063, 24 h
[30] = system: Bacillus cereus; assay: Antibacterial activity against Bacillus cereus NCIM 2155 at 500 ug/disk after 24 hr by disk diffusion method; type: functional; conditions: NCIM 2155, 24 h, read-out: DIZ
[31] = system: Streptomyces albus; assay: Antibacterial activity against Streptomyces albus NCIM 2178 at 500 ug/disk after 24 hr by disk diffusion method; type: functional, organism-based
[32] = system: Penicillium chrysogenum; assay: Antifungal activity against Penicillium chrysogenum NCIM 707 after 72 hr by broth dilution assay; type: functional; conditions: NCIM 707, 72 h
[33] = system: Aspergillus flavus; assay: Antifungal activity against Aspergillus flavus NCIM 535 at 1000 ug/disk after 72 hr by disk diffusion method; type: functional; conditions: NCIM 535, 72 h, read-out: DIZ
[34] = system: Candida albicans; assay: Antifungal activity against Candida albicans NCIM 3471 at 500 ug/disk after 72 hr by disk diffusion method; type: functional; conditions: for zone of inhibition at 500 µg/disc: NCIM 3471, 72 h, read-out: DIZ
[35] = system: Pseudomonas aeruginosa; assay: Antibacterial activity against Pseudomonas aeruginosa NCIM 2200 at 1000 ug/disk after 24 hr by disk diffusion method; type: functional; conditions: NCIM 2200, 24 h, read-out: DIZ
[36] = system: Lipomyces lipofer; assay: Antifungal activity against Lipomyces lipofer NCIM 3252 after 72 hr by broth dilution assay; type: functional; conditions: NCIM 3252, 72 h

Compound	zone of inhibition at 1000 µg/disc [2] [mm]	zone of inhibition at 1000 µg/disc [4] [mm]	MIC [6] [µg/mL]	MIC [7] [µg/mL]	zone of inhibition at 1000 µg/disc [8] [mm]	MIC [9] [µg/mL]	MIC [10] [µg/mL]	zone of inhibition at 1000 µg/disc [11] [mm]	zone of inhibition at 1000 µg/disc [12] [mm]	MIC [13] [µg/mL]	MIC [15] [µg/mL]	zone of inhibition at 1000 µg/disc [16] [mm]	MIC [19] [µg/mL]	MIC [20] [µg/mL]	diameter of the inhibition zone (DIZ) [21]	zone of inhibition at 1000 µg/disc [23] [mm]	zone of inhibition at 1000 µg/disc [24] [mm]	MIC [25] [µg/mL]	zone of inhibition at 1000 µg/disc [26] [mm]	zone of inhibition at 500 µg/disc [28] [mm]	further results
Cc1ccc2nc3[nH]c(=O)[nH]c(=O)c3cc2c1	13	10	7.8 (≈ 34.3 µM)	15.6 (≈ 68.7 µM)	12	7.8 (≈ 34.3 µM)	62.5 (≈ 275 µM)	11	11	31.2 (≈ 137 µM)	7.8 (≈ 34.3 µM)	11	7.8 (≈ 34.3 µM)	7.8 (≈ 34.3 µM)	inactive	13	13	3.9 (≈ 17.2 µM)	9	9	zone of inhibition at 500 µg/disc [1]: 9 mm; zone of inhibition at 1000 µg/disc [3]: 11 mm; zone of inhibition at 500 µg/disc [5]: 10 mm; zone of inhibition at 500 µg/disc [14]: 10 mm; diameter of the inhibition zone (DIZ) [17]: inactive; zone of inhibition at 500 µg/disc [18]: 9 mm; zone of inhibition at 500 µg/disc [22]: 11 mm; zone of inhibition at 500 µg/disc [27]: 16 mm; MIC [29]: 15.6 µg/mL (≈ 68.7 µM); zone of inhibition at 500 µg/disc [30]: 11 mm; diameter of the inhibition zone (DIZ) [31]: inactive; MIC [32]: 15.6 µg/mL (≈ 68.7 µM); zone of inhibition at 1000 µg/disc [33]: 10 mm; zone of inhibition at 500 µg/disc [34]: 8 mm; zone of inhibition at 1000 µg/disc [35]: 17 mm; MIC [36]: 15.6 µg/mL (≈ 68.7 µM)
Cc1cccc2cc3c(=O)[nH]c(=O)[nH]c3nc12	13	11	7.8 (≈ 34.3 µM)	31.2 (≈ 137 µM)	15	15.6 (≈ 68.7 µM)	62.5 (≈ 275 µM)	9	10	125 (≈ 550 µM)	15.6 (≈ 68.7 µM)	13	3.9 (≈ 17.2 µM)	15.6 (≈ 68.7 µM)	inactive	13	12	7.8 (≈ 34.3 µM)	10	9	diameter of the inhibition zone (DIZ) [1]: inactive; diameter of the inhibition zone (DIZ) [3]: inactive; diameter of the inhibition zone (DIZ) [5]: inactive; diameter of the inhibition zone (DIZ) [14]: inactive; zone of inhibition at 500 µg/disc [17]: 14 mm; diameter of the inhibition zone (DIZ) [18]: inactive; diameter of the inhibition zone (DIZ) [22]: inactive; diameter of the inhibition zone (DIZ) [27]: inactive; MIC [29]: 31.2 µg/mL (≈ 137 µM); zone of inhibition at 500 µg/disc [30]: 11 mm; diameter of the inhibition zone (DIZ) [31]: inactive; MIC [32]: 62.5 µg/mL (≈ 275 µM); zone of inhibition at 1000 µg/disc [33]: 13 mm; diameter of the inhibition zone (DIZ) [34]: inactive; zone of inhibition at 1000 µg/disc [35]: 11 mm; MIC [36]: 31.2 µg/mL (≈ 137 µM)
O=c1[nH]c(=O)c2cc3ccccc3nc2[nH]1	11	12	3.9 (≈ 18.3 µM)	15.6 (≈ 73.2 µM)	13	31.2 (≈ 146 µM)	31.2 (≈ 146 µM)	13	11	125 (≈ 586 µM)	31.2 (≈ 146 µM)	11	3.9 (≈ 18.3 µM)	7.8 (≈ 36.6 µM)	inactive	11	13	31.2 (≈ 146 µM)	13	11	zone of inhibition at 500 µg/disc [1]: 10 mm; zone of inhibition at 1000 µg/disc [3]: 10 mm; zone of inhibition at 500 µg/disc [5]: 8 mm; zone of inhibition at 500 µg/disc [14]: 8 mm; zone of inhibition at 500 µg/disc [17]: 11 mm; zone of inhibition at 500 µg/disc [18]: 8 mm; zone of inhibition at 500 µg/disc [22]: 9 mm; zone of inhibition at 500 µg/disc [27]: 10 mm; MIC [29]: 15.6 µg/mL (≈ 73.2 µM); zone of inhibition at 500 µg/disc [30]: 9 mm; diameter of the inhibition zone (DIZ) [31]: inactive; MIC [32]: 7.8 µg/mL (≈ 36.6 µM); zone of inhibition at 1000 µg/disc [33]: 14 mm; zone of inhibition at 500 µg/disc [34]: 9 mm; zone of inhibition at 1000 µg/disc [35]: 14 mm; MIC [36]: 62.5 µg/mL (≈ 293 µM)
